Laboratory results from patent US9975944B2, “Synthetic peptides for the treatment of autoimmune diseases” (TEL HASHOMER MEDICAL RESEARCH INFRASTRUCTURE AND SERVICES …, priority 2013, dated 2018).
Square brackets hold non-standard residues; d marks the D form. Ends that are not written are not given here. Cit = NC(=O)NCCC[C@H](N)C(=O)O

What was measured:
TGF-β = TGF-β gene expression in peripheral blood mononuclear cells of RA patients, real-time PCR; type: cell-based, human; conditions: for mean expression levels of TGF-β: PBMC from 6 RA patients, compared with matched non-citrullinated peptide; for TGF-β gene expression level: PBMC of RA patients, 24 h incubation, peptide 0.25 or 1.25 μg/ml, compared with control non-citrullinated peptides
Description: (§1) Citrullinated peptide derived from filaggrin, set forth in SEQ ID NO: 3, (HQCHQESTCitGRSRGRCGRSGS) designated Fil-Cit and citrullinated peptide derived from β-fibrinogen sequence (designated β-Fib-Cit) set forth in SEQ ID NO: 2 (CitPAPPPISGGGYCitACit) were examined for their ability to immunomodulate cytokine expression in peripheral blood mononuclear cells from rheumatoid arthritis patients. Matched non-citrullinated forms of those peptides served as control, and were designated Fil-NC and β-Fib-NC, respectively. All rheumatoid arthritis patients who participated in the study signed an informed consent and the research was approved by the Sheba Helsinki committee (approval No 9247-12-SMC). All procedures were conducted according to good clinical practice (GCP) regulations.
(§2) Peripheral blood mononuclear cells were isolated from blood samples using Ficoll-Paque density gradient centrifugation. The extracted cells were cultivated in the presence of Fil-Cit (0.25 μg/ml or 1.25 μg/ml), β-Fib-Cit (0.25 μg/ml or 1.25 μg/ml) and the control matched peptides. Total RNA was extracted 24 h after incubation with the peptides.
To further investigate the ex vivo effects of the citrullinated peptides on TGF-β expression, peripheral blood mononuclear cells obtained from 6 rheumatoid arthritis patients were cultured in the presence of citrullinated or control peptides. […] Up-regulation was likewise indicated in peripheral blood mononuclear cells incubated with Fil-Cit.

IFN-γ = IFN-γ gene expression in peripheral blood mononuclear cells of RA patients, real-time PCR; type: cell-based, human; conditions: PBMC of RA patients, 24 h incubation, peptide 0.25 or 1.25 μg/ml, compared with control non-citrullinated peptides
Description: as §1, §2

TNF-α [1] = assay: TNF-α gene expression in peripheral blood mononuclear cells of RA patients, real-time PCR; type: cell-based, human; conditions: PBMC of RA patients, 24 h incubation, peptide 0.25 or 1.25 μg/ml, compared with control non-citrullinated peptides
Description: as §1, §2

IL-17 = IL-17 gene expression in peripheral blood mononuclear cells of RA patients, real-time PCR; type: cell-based, human; conditions: PBMC of RA patients, 24 h incubation, peptide 0.25 or 1.25 μg/ml, compared with control non-citrullinated peptides
Description: as §1, §2

CD4+CD25+Foxp3+ T cells = assay: Regulatory T cell proportion in PBMC of RA patients, FACS; type: cell-based, human; conditions: 48 hours
Experimental: Given the observed immunomodulation of cytokines following incubation of peripheral blood mononuclear cells obtained from rheumatoid arthritis patients with citrullinated peptides, the citrullinated peptides were tested for their ability to exert an effect on the T regulatory population proportion. Peripheral blood mononuclear cells of rheumatoid arthritis patients were cultured in the presence of 1.25 μg/ml of the peptides (Fil-Cit, β-Fib-Cit, and Cit-ME; FIGS. 6A, 6B and 6E, respectively, and Fil-NC, β-Fib-NC and Non-Cit-ME; FIGS. 6C, 6D and 6G, respectively), and Infliximab (FIG. 6F) for 48 hours. Cells cultured with medium devoid of the peptides and Infliximab served as control (FIG. 6H). Thereafter, cells were stained for the expression of CD4, CD25, and FoxP3 and analyzed by FACS. […] Mean percentage of CD4^+CD25^+Foxp3^+ T cells in the presence of Infliximab was increased by 14% as compared to medium (FIG. 6F and FIG. 6H, respectively). Thus, citrullinated peptides are able to induce the expansion of the T regulatory cell population.

pathogenic Th17 cells = assay: Pathogenic Th17 cell proportion in PBMC of RA patients, FACS; type: cell-based, human; conditions: 48 hours
Experimental: To assess ability of the citrullinated peptides to affect the pathogenic Th17 cells population proportion, peripheral blood mononuclear cells of rheumatoid arthritis patients were cultured in the presence of citrullinated peptides, non-citrullinated peptides and Infliximab for 48 hours. In the last 4 hours phorbol12-myristate 13-acetate (PMA), ionomycin and brefeldin A were added to the culture. Thereafter cells were stained with antibodies against CD3 and IL-17. As shown in FIGS. 7A-7H, significant down-regulation in the mean percentage of pathogenic Th17 cells was detected following incubation with the citrullinated peptides: decrease of 21% (Fil-Cit; E), 5% (β-Fib-Cit; F), and 26% (Cit-ME; G) as compared with the non-citrullinated matched peptides (FIG. 7A-7C, respectively). Mean percentage of pathogenic Th17 cells in the presence of Infliximab was decreased by 48% (FIG. 7H) as compared to medium (FIG. 7D).

T cells = T cells apoptosis in PBMC of RA patients, annexin V/PI FACS; type: cell-based, human; conditions: 24 hours, gated on PI negative cells
Experimental: To assess the ability of the citrullinated peptides to affect T cells apoptosis, peripheral blood mononuclear cells of rheumatoid arthritis patients were cultured in the presence of citrullinated, non-citrullinated peptides and Infliximab for 24 hours. Cells were double-stained for annexin V-fluorescein isothiocyanate (FITC) and PI-PE (apoptosis/necrosis markers) and analyzed by FACS. The results in FIG. 8 are presented after gating for PI negative cells (live cells). The β-Fib-Cit and Cit-ME (FIGS. 8A and 8B, respectively) induced T cells apoptosis (by 20% and 18%, respectively) as compared with the non-citrullinated peptides Non-Cit-β-Fib (FIG. 8D) and Non-Cit-ME (FIG. 8E). Infliximab induced apoptosis by 28% (FIG. 8C) as compared with the medium control (FIG. 8F).

TNF-α [2] = assay: TNF-α gene expression in mononuclear cells derived from synovial fluid of RA patients, real-time PCR; type: cell-based, human; conditions: compared to medium alone (control)
Experimental: To assess the effect of the Cit-ME peptide (SEQ ID NO: 1) on inflammatory related genes expression, peripheral blood mononuclear cells derived from synovial fluid rheumatoid arthritis patients were incubated with the Cit-ME multi-epitope citrullinated peptide for 24 h. The effect of the peptide on gene expression was compared also to the effect of infliximab, a TNF-α blocker, which is an antirheumatic drug that acts as an anti-inflammatory compound. […] Results were determined by real-time PCR.

AIA rats [3] = assay: Adjuvant-Induced Arthritis (AIA) in rats, paw swelling and clinical signs; type: in vivo, rat; conditions: AIA rats, 8 subcutaneous injections of 300 μg per rat on alternate days from day 7
AIA rats [4] = assay: Histological signs of arthritis in ankle joints of AIA rats; type: in vivo, rat; conditions: day 28 post disease induction, H&E, untreated 1.75±0.41
Experimental: To evaluate the histological signs of arthritis, rats were sacrificed and ankle joints were collected on day 28 post disease induction. The joints were fixed immediately for 24 hours in 4% paraformaldehyde, then decalcified in rapid bone decalcifier (RDO; Apex Engineering, Plainfield, Ill., USA) for 6 hours at room temperature, and further fixed in 4% paraformaldehyde before embedding in paraffin. Sections (5 μm thick) were rehydrated in a graded ethanol series and stained with haematoxylin & eosin (H&E). FIGS. 11A to 11C show representative H&E stained joint tissue sections (magnification ×100). Arrowheads denote the infiltrated zones, scale bar=200 μm. The specimens were scored for severity of inflammation in the synovium, pannus formation, cartilage, and bone erosion. A close correlation between the clinical signs and the histopathological findings was found.

[5] = test system: CD4+CD25+FoxP3+ regulatory T cells; assay: Regulatory T cells in splenocytes of AIA rats, FACS; type: in vivo, rat
Description: Splenocytes from rats at day 28 post disease induction were stained with anti-CD4-FITC, anti-CD25-APC, and anti-Foxp3-PE (eBioscience) mAbs and analyzed by FACS. In representative outputs as shown in FIG. 12A-C, Regulatory T cells subpopulation was higher in Cit-ME treated rats (9%), compared to 7% and 6.2% in Non-Cit-ME peptide and untreated rats, respectively. Statistical analysis of the results is shown in FIG. 12D (Cit-ME n=9, Non-Cit-ME n=11, untreated rats n=7).

[6] = test system: T cells derived from the spleen; assay: Apoptosis of T cells from the spleen of AIA rats, Annexin V/PI staining; type: in vivo, rat; conditions: gated for PI and CD4+, two independent experiments, control 13±1%
Experimental: To assess apoptosis of T cells derived from the spleen of treated rats, the Annexin V/PI staining method was preformed. FIGS. 14A-14C are representative histograms of cells treated with Cit-Me (FIG. 14A), non-Cit-Me (FIG. 14B) or untreated (FIG. 14C). The histograms present apoptosis measured by Annexin V^+. First, cells were gated for PI and CD4^+ and next analyzed for percentage of Annexin-V positive cells. […] A significant increase (p<0.01) in the mean apoptotic rate was determined in cells from the spleen of Cit-ME treated rats (19.5±1.8%) in comparison with Non-Cit-ME or control (13.8±1.3% and 13±1%, respectively).

[7] = 1.25 μg/ml peptide, compared with non-citrullinated matched peptide
[8] = PMA, ionomycin and brefeldin A in last 4 hours, compared with non-citrullinated matched peptide

Row | Substance | mean expression levels of TGF-β (TGF-β) | TGF-β gene expression level (TGF-β) | IFN-γ gene expression level (IFN-γ) | TNF-α gene expression level (TNF-α [1]) | IL-17 gene expression level (IL-17) | increase in mean percentage of CD4+CD25+Foxp3+ T cells (CD4+CD25+Foxp3+ T cells; [7]) [%] | decrease in mean percentage of pathogenic Th17 cells (pathogenic Th17 cells; [8]) [%] | induction of T cells apoptosis (T cells; compared with matched non-citrullinated peptide) [%] | expression level of TNF-α (TNF-α [2]) | increase in mean percentage of CD4+CD25+Foxp3+ T cells (CD4+CD25+Foxp3+ T cells; compared to medium) [%] | decrease in mean percentage of pathogenic Th17 cells (pathogenic Th17 cells; compared to medium) [%] | induction of apoptosis (T cells; compared with the medium control) [%] | clinical score post immunization (AIA rats [3]) | histological inflammatory score (AIA rats [4]) | percentage of CD4+CD25+FoxP3+ regulatory T cells subset, statistical analysis ([5]; spleens of AIA rats, day 28, untreated 7.17±0.31) [%] | Regulatory T cells subpopulation, representative outputs ([5]; splenocytes of AIA rats, day 28 post disease induction, untreated 6.2%) [%] | mean apoptotic rate (Annexin-V positive cells) [6] [%]
1 | CitPAPPPISGGGYCitACit ([Cit]PAPPPISGGGY[Cit]A[Cit]) [β-Fib-Cit] | significantly up-regulated | significantly up-regulated | down-regulated | down-regulated | down-regulated | 50 | 5 | 20 |  |  |  |  |  |  |  |  | 
2 | HQCHQESTCitGRSRGRCGRSGS (HQCHQEST[Cit]GRSRGRCGRSGS; cysteine pairing not given here) [Fil-Cit, citrullinated peptide derived from filaggrin] | Up-regulation | significantly up-regulated | down-regulated | down-regulated | down-regulated | 56 | 21 |  |  |  |  |  |  |  |  |  | 
3 | Infliximab: a TNF-α blocker, an antirheumatic drug that acts as an anti-inflammatory compound [reference compound] |  |  |  |  |  |  |  |  | downregulated | 14 | 48 | 28 |  |  |  |  | 
4 | VRLRSSVESTRGRSRPAPPPARGLT [Non-Cit-ME] |  |  |  |  |  |  |  |  |  |  |  |  | Reduction in clinical score | 1.28±0.6 | 6.97±0.22 | 7 | 13.8±1.3
